Consider 16 compounds from patent US20240148821A1, “PHARMACEUTICAL USE OF CYCLIC PEPTIDE COMPOUND” (CHUGAI SEIYAKU KABUSHIKI KAISHA, priority 2021, published 2024).

Numbered stars: 1 amine (or outer) side, 2 acyl side, 3 side chain; on linkers, the order of the positions; unused ones are H or OH. Bridge positions count the residues as written; N and C are the ends. Square brackets hold non-standard residues; d marks the D form. Peptide text beside a SMILES is read from it. * marks the point of attachment. hPhe(3-Cl-4-CF3) = N[C@@H](CCc1ccc(C(F)(F)F)c(Cl)c1)C(=O)O; hPhe(3-F,4-CF3) = N[C@@H](CCc1ccc(C(F)(F)F)c(F)c1)C(=O)O; X23 = N#Cc1cc(CC[C@H](N[*:1])C(=O)[*:2])ccc1C(F)(F)F; NMePhe(4-CF3) = CN[C@@H](Cc1ccc(C(F)(F)F)cc1)C(=O)O; NMeAbu(4,4,4-F3) = CN[C@@H](CC(F)(F)F)C(=O)O; NMePhe(4-Cl) = CN[C@@H](Cc1ccc(Cl)cc1)C(=O)O; NMePhe(4-F) = CN[C@@H](Cc1ccc(F)cc1)C(=O)O; NMedβ3hAla = C[C@H](CC(=O)[*:2])N(C)[*:1]; X77 = O=C(CN(CCN1CCC(F)(F)CC1)[*:1])[*:2]; NGly(CH2(3-pyridyl)) = O=C(O)CNCc1cccnc1; NMeGly(cPent) = CN[C@H](C(=O)O)C1CCCC1; Pro(4,4-F2) = O=C(O)[C@@H]1CC(F)(F)CN1; NMeGly(cBu) = CN[C@H](C(=O)O)C1CCC1; NMeCha = CN[C@@H](CC1CCCCC1)C(=O)O; NMeAhp(2) = CCCCC[C@H](NC)C(=O)O; NMeChg = CN[C@H](C(=O)O)C1CCCCC1; NMeF = CN[C@@H](Cc1ccccc1)C(=O)O; NMeI = CC[C@H](C)[C@H](NC)C(=O)O; N(CH2CH2)2CF2 = FC1(F)CCN(*)CC1; X43 = O=C(CN(CCCCCO)[*:1])[*:2]; NMeD = CN[C@@H](CC(=O)O)C(=O)O; NMeL = CN[C@@H](CC(C)C)C(=O)O; NMeV = CN[C@H](C(=O)O)C(C)C; d(β3hA) = C[C@@H](N)CC(=O)O; Azetidin(1-yl) = C1CN(*)C1; Morpholide = C1CN(*)CCO1; NMeA = CN[C@@H](C)C(=O)O; NMeAib = CNC(C)(C)C(=O)O; Piperidide = C1CCN(*)CC1; Pyrrolidide = C1CCN(*)C1; dNMeA = CN[C@H](C)C(=O)O; Ac5c = NC1(C(=O)O)CCCC1; Aze = O=C(O)[C@@H]1CCN1; Sar = CNCC(=O)O

The first experiment concerns the target protein-protein interaction between Kras and SOS1 (biotin-tagged human Kras loaded with GDP, His-tagged human SOS1) (Homo sapiens (Human), UniProt P01116, G12D). The experiment in a line: Protein-protein interaction inhibition between Kras and SOS1 (KrasG12D-SOS PPI) using AlphaScreen.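 Note: kras produced in E. coli, Ni-coupled donor beads and streptavidin acceptor beads, excitation 680 nm with emission detected at 520–620 nm via singlet oxygen transfer.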 To be noted: AlphaScreen; biotin-tagged human Kras loaded with GDP, His-tagged human SOS1; read-out: KRAS G12D-SOS PPI IC50. In kind it is biochemical. A general note: Alpha assays give light when donor and acceptor beads are brought close together.
Consider `CC[C@H](C)[C@@H]1NC(=O)[C@H](CC(C)C)N(C)C(=O)C[C@@H](C(=O)N2CCCCC2)N(C)C(=O)[C@H](C2CCCC2)N(C)C(=O)C2(CCCC2)NC(=O)[C@@H]2CCCN2C(=O)[C@H](CCc2ccc(C(F)(F)F)c(C#N)c2)NC(=O)CN(C)C(=O)[C@H](CC2CCCCC2)N(C)C(=O)[C@@H]2CCN2C(=O)[C@H](C)N(C)C1=O` [Compound 2072] ([NMeL]I[NMeA][Aze][NMeCha][Sar][X23]P[Ac5c][NMeGly(cPent)][NMeD]-Piperidide; lactam N-11 (inferred); C-terminus assumed), for which the IC50 came out at 0.42 nM. For `CC[C@H](C)[C@@H]1NC(=O)[C@H](CC(C)C)N(C)C(=O)C[C@@H](C(=O)N2CCCCC2)NC(=O)[C@H](C(C)C)N(C)C(=O)C2(CCCC2)NC(=O)[C@H](CC(=O)N2CCC(F)(F)CC2)N(C)C(=O)[C@H](CCc2ccc(C(F)(F)F)c(Cl)c2)NC(=O)CN(C)C(=O)[C@H](CC2CCCCC2)N(C)C(=O)CN(C)C(=O)CN(C)C1=O` [Compound 3] ([NMeL]I[Sar][Sar][NMeCha][Sar][hPhe(3-Cl-4-CF3)][NMeD](N(CH2CH2)2CF2)[Ac5c][NMeV]D-Piperidide; lactam N-11), the IC50 was 310 nM. Take `CC[C@H](C)[C@@H]1NC(=O)[C@H](CC(C)C)N(C)C(=O)C[C@@H](C(=O)N2CCCCC2)N(C)C(=O)[C@H](C2CCCCC2)N(C)C(=O)C2(CCCC2)NC(=O)CN(Cc2cccnc2)C(=O)[C@H](CCc2ccc(C(F)(F)F)c(Cl)c2)NC(=O)CN(C)C(=O)[C@H](CC2CCCCC2)N(C)C(=O)CN(C)C(=O)CN(C)C1=O` [Compound 2026] ([NMeL]I[Sar][Sar][NMeCha][Sar][hPhe(3-Cl-4-CF3)][NGly(CH2(3-pyridyl))][Ac5c][NMeChg][NMeD]-Piperidide; lactam N-11 (inferred); C-terminus assumed): the IC50 came out at 1.3 nM.

Regarding `CC[C@H](C)[C@@H]1NC(=O)[C@H](CC(C)C)N(C)C(=O)C[C@@H](C)N(C)C(=O)[C@H]([C@@H](C)CC)N(C)C(=O)C2(CCCC2)NC(=O)[C@@H]2CCCN2C(=O)[C@H](CCc2ccc(C(F)(F)F)c(F)c2)NC(=O)CN(C)C(=O)[C@H](CC2CCCCC2)N(C)C(=O)[C@@H]2CCN2C(=O)[C@H](C)N(C)C1=O` [Compound 859] (cyclo([Ac5c][NMeI][NMedβ3hAla][NMeL]I[NMeA][Aze][NMeCha][Sar][hPhe(3-F,4-CF3)]P)), the IC50 was 64 nM. As to `CC[C@H](C)[C@@H]1NC(=O)[C@H](CC(C)C)N(C)C(=O)C[C@@H](C(=O)N2CCCCC2)N(C)C(=O)[C@H](C(C)C)N(C)C(=O)C2(CCCC2)NC(=O)[C@@H]2CCCN2C(=O)[C@H](CCc2ccc(C(F)(F)F)c(Cl)c2)NC(=O)CN(C)C(=O)[C@H](C2CCC2)N(C)C(=O)[C@@H]2CCN2C(=O)[C@H](C)N(C)C1=O` [Compound 446] ([NMeL]I[NMeA][Aze][NMeGly(cBu)][Sar][hPhe(3-Cl-4-CF3)]P[Ac5c][NMeV][NMeD]-Piperidide; lactam N-11), the IC50 was found to be 1.8 nM. Same read-out and setting: with `CC[C@H](C)[C@@H]1NC(=O)[C@H](CC(C)C)N(C)C(=O)C[C@@H](C(=O)N2CCCCC2)N(C)C(=O)[C@H](C2CCCCC2)N(C)C(=O)C2(CCCC2)NC(=O)CN(CCN2CCC(F)(F)CC2)C(=O)[C@H](CCc2ccc(C(F)(F)F)c(Cl)c2)NC(=O)CN(C)C(=O)[C@H](CC2CCCCC2)N(C)C(=O)CN(C)C(=O)CN(C)C1=O` [Compound 2022] ([NMeL]I[Sar][Sar][NMeCha][Sar][hPhe(3-Cl-4-CF3)][X77][Ac5c][NMeChg][NMeD]-Piperidide; lactam N-11) the figure was 3.8 nM.

As to `CC[C@H](C)[C@@H]1NC(=O)[C@H](CC(C)C)N(C)C(=O)C[C@@H](C(=O)N2CCCCC2)N(C)C(=O)[C@H](C(C)C)N(C)C(=O)C2(CCCC2)NC(=O)[C@@H]2CCCN2C(=O)[C@H](CCc2ccc(C(F)(F)F)c(Cl)c2)NC(=O)CN(C)C(=O)[C@H](CC2CCCCC2)N(C)C(=O)[C@@H]2CCN2C(=O)[C@H](CC(C)C)N(C)C1=O` [Compound 1558] ([NMeL]I[NMeL][Aze][NMeCha][Sar][hPhe(3-Cl-4-CF3)]P[Ac5c][NMeV][NMeD]-Piperidide; lactam N-11), the IC50 was 71 nM. Consider `CC[C@H](C)[C@@H]1NC(=O)[C@H](C)N(C)C(=O)C[C@@H](C)NC(=O)[C@H](CC(C)C)N(C)C(=O)[C@H](Cc2ccccc2)N(C)C(=O)[C@H](CC(C)C)NC(=O)[C@H](CCc2ccc(C(F)(F)F)c(F)c2)NC(=O)CN(C)C(=O)[C@H](Cc2ccc(Cl)cc2)N(C)C(=O)CN(C)C(=O)CN(C)C1=O` [Compound 2093] (cyclo(I[Sar][Sar][NMePhe(4-Cl)][Sar][hPhe(3-F,4-CF3)]L[NMeF][NMeL][d(β3hA)][NMeA])), for which the IC50 is 37 nM. For the compound `CC[C@H](C)[C@@H]1NC(=O)[C@H](CC(C)C)N(C)C(=O)C[C@@H](C(=O)N2CCCCC2)N(C)C(=O)[C@H](C2CCCCC2)N(C)C(=O)C2(CCCC2)NC(=O)CN(CCCCCO)C(=O)[C@H](CCc2ccc(C(F)(F)F)c(Cl)c2)NC(=O)CN(C)C(=O)[C@H](CC2CCCCC2)N(C)C(=O)CN(C)C(=O)CN(C)C1=O` [Compound 2049, (11S,17S,26S,29S,33S,36S)-11-[2-[3-chloro-4-(trifluoromethyl)phenyl]ethyl]-36-cyclohexyl-17-(cyclohexylmethyl)-9-(5-hydroxypentyl)-29-isobutyl-15,18,21,24,30,34,37-heptamethyl-26-[(1S)-1-methylpropyl]-33-(piperidine-1-carbonyl)-6,9,12,15,18,21,24,27,30,34,37-undecazaspiro[4.33]octatriacontane-7,10,13,16,19,22,25,28,31,35,38-undecone] ([NMeL]I[Sar][Sar][NMeCha][Sar][hPhe(3-Cl-4-CF3)][X43][Ac5c][NMeChg][NMeD]-Piperidide; lactam N-11), the IC50 turned out to be 4 nM. Still for that read-out and setting: with `CCCCC[C@H]1C(=O)N[C@@H]([C@@H](C)CC)C(=O)N[C@@H](C)C(=O)N2CC[C@H]2C(=O)N(C)[C@@H](CC2CCCCC2)C(=O)N(C)CC(=O)N[C@@H](CCc2ccc(C(F)(F)F)c(Cl)c2)C(=O)N2CCC[C@H]2C(=O)NC2(CCCC2)C(=O)N(C)[C@@H](C2CCCC2)C(=O)N(C)[C@H](C(=O)N2CCC2)CC(=O)N1C` [Compound 155] ([NMeAhp(2)]IA[Aze][NMeCha][Sar][hPhe(3-Cl-4-CF3)]P[Ac5c][NMeGly(cPent)][NMeD]-{Azetidin(1-yl)}; lactam N-11) the figure was 1.6 nM.

The test system of another experiment is Human pancreatic cancer cell line AsPC-1 (G12D mutation Kras). The experiment in a line: AsPC-1 cell growth inhibition (AsPC-1 CGI). The format is cell-based. To be noted: read-out: AsPC-1 cell growth inhibition, 50% growth inhibitory concentration (IC50 value); 96 hours, CellTiter-Glo, values classified in ranges. For orientation: Cellular ATP, detected with luciferase, serves as a proxy for viable cell number.
Description: Test compounds were serially dilated with dimethyl sulfoxide, and 200 nL was then dispensed to a U-bottom 96-well plate using Labcyte Echo. […] The cell suspension was dispensed to a. plate containing a test compound at 100 μL per well and incubated at 37° C. in a 5% carbon dioxide gas incubator. 96 hours later, 80 μL of CellTiter-Glo (Promega) was added to each well and fluorescence was measured.
For `CC[C@H](C)[C@@H]1NC(=O)[C@H](C)N(C)C(=O)C[C@@H](C(=O)N2CCCC2)N(C)C(=O)[C@H](C(C)C)N(C)C(=O)C2(CCCC2)NC(=O)[C@@H]2CCCN2C(=O)[C@H](CCc2ccc(C(F)(F)F)c(Cl)c2)NC(=O)[C@@H](C)N(C)C(=O)[C@H](CC2CCCCC2)N(C)C(=O)[C@@H]2CCCN2C(=O)CN(C)C1=O` [Compound 1715] ([NMeA]I[Sar]P[NMeCha][dNMeA][hPhe(3-Cl-4-CF3)]P[Ac5c][NMeV][NMeD]-Pyrrolidide; lactam N-11), the IC50 was > 500 nM. On the same count and under the same terms, as for `CC[C@H](C)[C@@H]1NC(=O)[C@H](C)N(C)C(=O)C[C@@H](C(=O)N2CCCCC2)N(C)C(=O)[C@H](C(C)C)N(C)C(=O)C2(CCCC2)NC(=O)[C@H](Cc2ccc(F)cc2)N(C)C(=O)[C@H](CCc2ccc(C(F)(F)F)c(Cl)c2)NC(=O)CN(C)C(=O)[C@H](CC2CCCCC2)N(C)C(=O)CN(C)C(=O)CN(C)C1=O` [Compound 821] ([NMeA]I[Sar][Sar][NMeCha][Sar][hPhe(3-Cl-4-CF3)][NMePhe(4-F)][Ac5c][NMeV][NMeD]-Piperidide; lactam N-11), the figure is > 500 nM; as for `CC[C@H](C)[C@@H]1NC(=O)[C@H](CC(C)C)N(C)C(=O)C[C@@H](C(=O)N2CCCC2)N(C)C(=O)[C@H](CC(C)C)NC(=O)C(C)(C)N(C)C(=O)[C@H](CC(C)C)NC(=O)[C@H](CCc2ccc(C(F)(F)F)c(F)c2)NC(=O)CN(C)C(=O)[C@H](CC2CCCCC2)N(C)C(=O)CN(C)C(=O)CN(C)C1=O` [Compound 312] ([NMeL]I[Sar][Sar][NMeCha][Sar][hPhe(3-F,4-CF3)]L[NMeAib]L[NMeD]-Pyrrolidide; lactam N-11), > 500 nM. `CC[C@H](C)[C@@H]1NC(=O)[C@H](CC(F)(F)F)N(C)C(=O)C[C@@H](C(=O)N2CCOCC2)N(C)C(=O)[C@H](C2CCCCC2)N(C)C(=O)C2(CCCC2)NC(=O)[C@@H]2CC(F)(F)CN2C(=O)[C@H](CCc2ccc(C(F)(F)F)c(Cl)c2)NC(=O)CN(C)C(=O)[C@H](Cc2ccc(C(F)(F)F)cc2)N(C)C(=O)CN(C)C(=O)CN(C)C1=O` [Compound 1182] ([NMeAbu(4,4,4-F3)]I[Sar][Sar][NMePhe(4-CF3)][Sar][hPhe(3-Cl-4-CF3)][Pro(4,4-F2)][Ac5c][NMeChg][NMeD]-Morpholide; lactam N-11): the IC50 was ≤ 20 nM. For `CC[C@H](C)[C@@H]1NC(=O)[C@H](CC(C)C)N(C)C(=O)C[C@@H](C)NC(=O)[C@H](C(C)C)N(C)C(=O)C2(CCCC2)NC(=O)[C@@H]2CCCN2C(=O)[C@H](CCc2ccc(C(F)(F)F)c(Cl)c2)NC(=O)CN(C)C(=O)[C@H](COc2ccccc2Cl)N(C)C(=O)CN(C)C(=O)CN(C)C1=O` [Compound 1582], the IC50 was > 500 nM. Same read-out and setting: with `CC[C@H](C)[C@@H]1NC(=O)[C@H](C)N(C)C(=O)C[C@@H](C)NC(=O)[C@H](C(C)C)N(C)C(=O)C2(CCCC2)NC(=O)[C@@H]2CCCN2C(=O)[C@H](CCc2ccc(C(F)(F)F)c(Cl)c2)NC(=O)[C@H]2CCCN2C(=O)[C@H](Cc2ccccc2)N(C)C(=O)[C@@H]2CCCN2C(=O)CN(C)C1=O` [Compound 1730] (cyclo([Ac5c][NMeV][d(β3hA)][NMeA]I[Sar]P[NMeF][dP][hPhe(3-Cl-4-CF3)]P)) the figure was > 500 nM.
